Results on 33 molecules are retold here after patent publication US7105510B2, “Non-nucleoside reverse transcriptase inhibitors” (Boehringer Ingelheim (Canada) Ltd., priority 2002, dated 2006).

For assay [1], the target named is T1, HIV-1 RT K103N/Y181C (Human immunodeficiency virus type 1 group M subtype B, UniProt P03366, K702N/Y780C).
T1 construct: mutations that occur in the reverse transcriptase segment of the pol gene
Description: Reverse Transcriptase (RT) assay, double mutant K103N/Y181C. The assay is classed as biochemical. The text has this: (§1) Based upon testing of these compounds, as described below, it is known that they inhibit the RNA-dependent DNA polymerase activity of HIV-1 RT. Utilizing the Reverse Transcriptase (RT) Assay described below, compounds can be tested for their ability to inhibit the RNA-dependent DNA polymerase activity of HIV-1 RT. Certain specific compounds described in the Examples which appear below, were so tested. The results of this testing appear in Table 2 as IC50 (nM) and EC50 (nM).
(§2) Reverse Transcriptase (RT) and Cell-Based Assays
(§3) The assays are as described in WO 01/96338A1, the contents of which are hereby incorporated herein.

Assay [2] has as its target T2, HIV-1 RT WT (Human immunodeficiency virus type 1 group M subtype B, UniProt P03366).
T2 construct: mutations that occur in the reverse transcriptase segment of the pol gene
Description: Reverse Transcriptase (RT) assay, wild type. The assay is classed as biochemical.
Description: as §1, §2, §3

Assay [3] has as its system HIV-1 WT. Description: Cell-based assay, wild type. To be noted: Human immunodeficiency virus 1.
Description: as §2, §3

Assay [4] concerns HIV-1 K103N/Y181C (103/181). The experiment in a line: Cell-based assay, 103/181 double mutant. The conditions noted are these: Human immunodeficiency virus 1, read-out: EC50 103/181.
Description: as §2, §3

The structures appear in SMILES notation.

As usually defined, the IC50 is the concentration needed to halve the response being measured. Low readings indicate higher potency, high ones lower potency.

`CCN1c2ncc(CCOc3cccc4c3CNC(=O)N4C)cc2C(=O)N(C)c2cccnc21` [Entry 113]: the IC50 in assay [1] and in assay [2] was under 50 nM each time. The EC50 in assay [3] and in assay [4] was under 10 nM each time.
Consider `CCN1c2ncc(CCOc3cccc4c3CNC4=O)cc2C(=O)Nc2c(C)ccnc21` [Entry 102], for which the IC50 in assay [1] is over 100 nM; in assay [2], under 50 nM. Moreover, the EC50 in assay [3] and in assay [4] was under 10 nM each time.
As to `CCN1c2ncc(CCOc3cccc4c3CNC(=O)N4)cc2C(=O)N(C)c2cccnc21` [Entry 110, 5,11-Dihydro-11-ethyl-5-methyl-8-{2-{(1,2,3,4-tetrahydro-2-oxo-5-quinazolinyl)oxy}ethyl}-6H-dipyrido[3,2-b:2′,3′-e][1,4]diazepin-6-one], the IC50 was over 100 nM in assay [1] and under 50 nM in assay [2]. For the same molecule, the EC50 in assay [3] and in assay [4] was under 10 nM in each case.
On to `CCN1c2ncc(CCOc3cccc4c3CN(O)C4=O)cc2C(=O)N(C)c2cccnc21` [Entry 103, 5,11-Dihydro-8-{2-{(2,3-dihydro-2-hydroxy-1-oxo-1H-isoindol-4-yl)oxy}ethyl}-11-ethyl-5-methyl-6H-dipyrido[3,2-b:2′,3′-e][1,4]diazepin-6-one], for which the IC50 in assay [1] is over 100 nM; in assay [2] it was 50 to 100 nM. Moreover, the EC50 in assay [3] is under 10 nM; in assay [4], 10 to 50 nM.
Take `CCN1c2ncc(CCOc3cccc4c3CN(Cc3ccncc3)C4=O)cc2C(=O)N(C)c2cccnc21` [Entry 104, 5,11-dihydro-8-{2-{{2,3-dihydro-1-oxo-2-(4-pyridinylmethyl)-1H-isoindol-4-yl}oxy}ethyl}-11-ethyl-5-methyl-6H-dipyrido[3,2-b:2′,3′-e][1,4]diazepin-6-one]: the IC50 in assay [1] was 50 to 100 nM; in assay [2] it was under 50 nM.
In the same order, the values of `CCN1c2ncc(CCOc3cccc4c3C(C)C(=O)N4C)cc2C(=O)N(C)c2cccnc21` (stereo not drawn) [Entry 106, 5,11-dihydro-8-{2-{(2,3-dihydro-1,3-dimethyl-2-oxo-1H-indol-4-yl)oxy}ethyl}-11-ethyl-5-methyl-6H-dipyrido[3,2-b:2′,3′-e][1,4]diazepin-6-one] are over 100 nM and 50 to 100 nM.
For `CCN1c2ncc(CCOc3cccc4c3CC(=O)N4)cc2C(=O)N(C)c2cccnc21` [Entry 105, 5,11-Dihydro-8-{2-{(2,3-dihydro-2-oxo-1H-indol-4-yl)oxy}ethyl}-11-ethyl-5-methyl-6H-dipyrido[3,2-b:2′,3′-e][1,4]diazepin-6-one], in that order: over 100 nM and 50 to 100 nM.
`CCN1C(=O)c2cc(CCOc3cccc4c3CNC(=O)N4)cnc2N(CC)c2ncccc21` [Entry 117]: the figures for the IC50 in assay [1] and in assay [2] were over 100 nM and under 50 nM, respectively.
In the case of `CCN1c2ncc(CCOc3ccc4c(c3)CNC(=O)N4C)cc2C(=O)N(C)c2cccnc21` [Entry 119], the concentration for half-maximal inhibition (IC50) is over 100 nM in assay [1] and under 50 nM in assay [2].
With `CCN1c2ncc(CCOc3cccc4c3CCNC4=O)cc2C(=O)N(C)c2cccnc21` [Entry 108], the IC50 in assay [1] was 50 to 100 nM; in assay [2], under 50 nM.
For `CCN1c2ncc(CCOc3cccc4c3CNC(=O)O4)cc2C(=O)N(C)c2cccnc21` [Entry 124, 5,11-Dihydro-8-{2-{(3,4-dihydro-2-oxo-2H-1,3-benzoxazin-5-yl)oxy}ethyl}-11-ethyl-5-methyl-6H-dipyrido[3,2-b:2′,3′-e][1,4]diazepin-6-one], the IC50 in assay [1] and in assay [2] was under 50 nM each time.
For the molecule `CCN1c2ncc(CCOc3cccc4c3CC(=O)N4C)cc2C(=O)N(C)c2cccnc21` [Entry 107, 5,11-dihydro-8-{2-{(2,3-dihydro-1-methyl-2-oxo-1H-indol-4-yl)oxy}ethyl}-11-ethyl-5-methyl-6H-dipyrido[3,2-b:2′,3′-e][1,4]diazepin-6-one], the IC50 in assay [2] lay within 50 to 100 nM.
With `CCN1c2ncc(CCOc3ccc4c(c3)CN(C)C(=O)N4C)cc2C(=O)N(C)c2cccnc21` [Entry 120], the half-maximal inhibitory concentration (IC50) was over 100 nM in assay [1] and under 50 nM in assay [2].
Regarding `CCN1c2ncc(CCOc3cccc4c3COC(=O)N4CC(=O)O)cc2C(=O)N(C)c2cccnc21` [Entry 128, 5-[2-(6,11-dihydro-11-ethyl-5-methyl-6-oxo-5H-dipyrido[3,2-b:2′,3′-e][1,4]diazepin-8-yl)ethoxy]-2-oxo-2H-3,1-benzoxazine-1(4H)-acetic acid], the values for the IC50 in assay [1] and in assay [2] were over 100 nM and 50 to 100 nM, respectively.
Regarding `CCN1c2ncc(CCOc3cccc4c3CNC(=O)N4CC(=O)O)cc2C(=O)N(C)c2cccnc21` [Entry 118], the IC50 in assay [1] is over 100 nM; in assay [2] it was under 50 nM. The EC50 in assay [3] and in assay [4] was over 50 nM in each case.
For `CCN1c2ncc(CCOc3ccc4c(c3)COC(=O)N4)cc2C(=O)N(C)c2cccnc21` [Entry 133], the IC50 in assay [1] was over 100 nM; in assay [2], under 50 nM.
As to `CCN1c2ncc(CCOc3cccc4c3CN(C)C(=O)N4C)cc2C(=O)N(C)c2cccnc21` [Entry 112], the IC50 in assay [1] was over 100 nM; in assay [2], under 50 nM. In addition, the EC50 is under 10 nM in assay [3] and 10 to 50 nM in assay [4].
Turning to `CCN1c2ncc(CCOc3ccc4on(C(C)(C)C)c(=O)c4c3)cc2C(=O)Nc2c(C)cc(F)nc21` [Entry 129, 5,11-Dihydro-8-{2-{{2,3-dihydro-2-(1,1-dimethylethyl)-3-oxo-1,2-benzisoxazol-5-yl}oxy}ethyl}-2-fluoro-11-ethyl-4-methyl-6H-dipyrido[3,2-b:2′,3′-e][1,4]diazepin-6-one], the IC50 in assay [1] is over 100 nM; in assay [2] it was 50 to 100 nM.
In the same order, the values of `CCN1c2ncc(CCOc3cccc4c3CCNC4=O)cc2C(=O)Nc2c(C)ccnc21` [Entry 109] are over 100 nM and under 50 nM.
Turning to `CCN1c2ncc(CCOc3cccc4[nH]c(=O)n(C)c34)cc2C(=O)N(C)c2cccnc21` [Entry 132], the values for the IC50 in assay [1] and in assay [2] were over 100 nM and 50 to 100 nM, respectively.
Consider `CCN1c2ncc(CCOc3cccc4c3CNC(=O)N4C)cc2C(=O)Nc2c(C)ccnc21` [Entry 116], for which the values for the IC50 in assay [1] and in assay [2] were over 100 nM and under 50 nM, respectively.
In the same order, the values of `CCN1c2ncc(CCOc3cccc4c3C(C)(C)OC(=O)N4)cc2C(=O)N(C)c2cccnc21` [Entry 125, 5,11-Dihydro-8-{2-{(1,4-dihydro-4,4-dimethyl-2-oxo-2H-3,1-benzoxazin-5-yl)oxy}ethyl}-11-ethyl-5-methyl-6H-dipyrido[3,2-b:2′,3′-e][1,4]diazepin-6-one] are over 100 nM and 50 to 100 nM.
Regarding `CCN1c2ncc(CCOc3cccc4c3COC(=O)N4)cc2C(=O)Nc2c(C)ccnc21` [Entry 127], the IC50 in assay [1] was over 100 nM; in assay [2] it was under 50 nM.
Take `CCN1c2ncc(CCOc3ccc4c(c3)CNC(=O)N4)cc2C(=O)N(C)c2cccnc21` [Entry 121]: the IC50 in assay [1] is over 100 nM; in assay [2], 50 to 100 nM.
Consider `CCN1c2ncc(CCOc3cccc4c3CNC(=O)C4)cc2C(=O)N(C)c2cccnc21` [Entry 123, 5,11-Dihydro-11-ethyl-5-methyl-8-{2-{(1,2,3,4-tetrahydro-3-oxo-8-isoquinolinyl)oxy}ethyl}-6H-dipyrido[3,2-b:2′,3′-e][1,4]diazepin-6-one], for which the IC50 in assay [1] and in assay [2] was under 50 nM each time.
Turning to `Cc1ccnc2c1NC(=O)c1cc(CCOc3cccc4c3CNC(=O)N4)cnc1N2C1CC1` [Entry 114], the IC50 in assay [1] is over 100 nM; in assay [2], under 50 nM.
As to `CCN1c2ncc(CCOc3ccc4[nH]c(=O)[nH]c4c3)cc2C(=O)N(C)c2cccnc21` [Entry 122, 5,11-Dihydro-8-{2-{(2,3-dihydro-2-oxo-1H-benzimidazol-5-yl)oxy}ethyl}-11-ethyl-5-methyl-6H-dipyrido[3,2-b:2′,3′-e][1,4]diazepin-6-one], the IC50 in assay [1] was over 100 nM; in assay [2], 50 to 100 nM.
Consider `CCN1c2ncc(CCOc3cccc4c3CNC4=O)cc2C(=O)N(C)c2cccnc21` [Entry 101, 5,11-Dihydro-8-{2-{(2,3-dihydro-1-oxo-1H-isoindol-4-yl)oxy}ethyl}-11-ethyl-5-methyl-6H-dipyrido[3,2-b:2′,3′-e][1,4]diazepin-6-one], for which the IC50 in assay [1] is over 100 nM; in assay [2], under 50 nM. For the same molecule, the EC50 in assay [3] and in assay [4] was under 10 nM in each case.
`CCN1c2ncc(CCOc3cccc4c3CN(C)C(=O)N4C)cc2C(=O)Nc2c(C)ccnc21` [Entry 115]: the IC50 in assay [1] was over 100 nM; in assay [2] it was under 50 nM.
`CCN1c2ncc(CCOc3cccc4c3CNC(=O)N4)cc2C(=O)Nc2c(C)ccnc21` [Entry 111]: the IC50 was over 100 nM in assay [1] and under 50 nM in assay [2]. In addition, the figures for the EC50 in assay [3] and in assay [4] were under 10 nM and 10 to 50 nM, respectively.
As for `CCN1c2ncc(CCOc3ccc4on(C)c(=O)c4c3)cc2C(=O)Nc2c(C)cc(F)nc21` [Entry 130], the results for the IC50 in assay [1] and in assay [2] were over 100 nM and under 50 nM, respectively.
For the molecule `CCN1c2ncc(CCOc3cccc4c3COC(=O)N4)cc2C(=O)N(C)c2cccnc21` [Entry 126, 5,11-Dihydro-8-{2-{(1,4-dihydro-2-oxo-2H-3,1-benzoxazin-5-yl)oxy}ethyl}-11-ethyl-5-methyl-6H-dipyrido[3,2-b:2′,3′-e][1,4]diazepin-6-one], the IC50 in assay [1] was over 100 nM; in assay [2], under 50 nM.
With `CCN1c2ncc(CCOc3cccc4c3n(C)c(=O)n4C)cc2C(=O)N(C)c2cccnc21` [Entry 131], the IC50 in assay [1] is over 100 nM; in assay [2], 50 to 100 nM.
